Data published in ChEMBL document CHEMBL3588838, “A full conformational characterization of antiandrogen cortexolone-17-propionate and related compounds through theoretical calculations and nuclear magnetic resonance spectroscopy” (Medchemcomm, 2014).
Blank lines part the entries; values can stand above or below the compound they belong to. Active and inactive are the calls of the source. The rule behind the calls is not given here.

Experiments:
Syrian golden hamster [1] = assay: Antiandrogenic activity in female Syrian golden hamsters assessed as inhibition of testosterone propionate-induced flank organ enlargement at 400 ug per animal, topically relative to untreated control; assay type: functional, Mesocricetus auratus
Plasma = assay: Drug metabolism in rat plasma assessed as cortexolone-21-propionate formation after up to 8 hrs by HPLC analysis in presence of 50 ug/ml dichlofvos; assay type: ADME, cell-free
[2] = Drug metabolism in rat skin homogenate assessed as compound remaining after 4 hrs by HPLC analysis; assay type: ADME, tissue-based, Zone of skin; settings: read-out: Drug metabolism
[3] = Drug metabolism in rat skin homogenate assessed as compound remaining after 1 hr by HPLC analysis; assay type: ADME, tissue-based, Zone of skin; settings: read-out: Drug metabolism
[4] = Drug metabolism in rat plasma assessed as compound remaining after 8 hrs by HPLC analysis; assay type: ADME, cell-free; settings: read-out: Drug metabolism
[5] = Drug metabolism in rat plasma assessed as compound remaining after 1 hr by HPLC analysis; assay type: ADME, cell-free; settings: read-out: Drug metabolism
[6] = Drug metabolism in rat skin homogenate assessed as compound remaining after 2 hrs by HPLC analysis; assay type: ADME, tissue-based, Zone of skin; settings: read-out: Drug metabolism
Rattus norvegicus [7] = assay: Antiandrogenic activity in sc dosed male castrated Wistar rat assessed as inhibition of testosterone propionate-induced seminal vesicles gland organ effect; assay type: functional, organism-based
[8] = Drug metabolism in human plasma assessed as compound remaining after 2 hrs by HPLC analysis; assay type: ADME, cell-free; settings: read-out: Drug metabolism
[9] = Drug metabolism in rat skin homogenate assessed as compound remaining after 24 hrs by HPLC analysis; assay type: ADME, tissue-based, Zone of skin; settings: read-out: Drug metabolism
Rattus norvegicus [10] = assay: Glucocorticoid activity in male castrated Wistar rat assessed as reduction in thymus weight at 100 mg/kg, sc; assay type: functional, organism-based
[11] = Drug metabolism in rat skin homogenate assessed as compound remaining after 15 mins by HPLC analysis; assay type: ADME, tissue-based, Zone of skin; settings: read-out: Drug metabolism
[12] = Drug metabolism in human plasma assessed as compound remaining after 30 mins by HPLC analysis; assay type: ADME, cell-free; settings: read-out: Drug metabolism
Rattus norvegicus [13] = assay: Glucocorticoid activity in male castrated Wistar rat assessed as reduction in adrenal weight at 100 mg/kg, sc; assay type: functional, organism-based
[14] = Drug metabolism in human plasma assessed as compound remaining after 6 hrs by HPLC analysis; assay type: ADME, cell-free; settings: read-out: Drug metabolism
[15] = Drug metabolism in rat skin homogenate assessed as compound remaining after 0 mins by HPLC analysis; assay type: ADME, tissue-based, Zone of skin; settings: read-out: Drug metabolism
Androgen receptor = biological target: T1, Androgen receptor (Homo sapiens, UniProt P10275); assay: Displacement of [3H]methyltrienolone from androgen receptor in human prostate cancer cells; assay type: cell-based, Cancer cell lines
T1 sequence (P10275 whole entry): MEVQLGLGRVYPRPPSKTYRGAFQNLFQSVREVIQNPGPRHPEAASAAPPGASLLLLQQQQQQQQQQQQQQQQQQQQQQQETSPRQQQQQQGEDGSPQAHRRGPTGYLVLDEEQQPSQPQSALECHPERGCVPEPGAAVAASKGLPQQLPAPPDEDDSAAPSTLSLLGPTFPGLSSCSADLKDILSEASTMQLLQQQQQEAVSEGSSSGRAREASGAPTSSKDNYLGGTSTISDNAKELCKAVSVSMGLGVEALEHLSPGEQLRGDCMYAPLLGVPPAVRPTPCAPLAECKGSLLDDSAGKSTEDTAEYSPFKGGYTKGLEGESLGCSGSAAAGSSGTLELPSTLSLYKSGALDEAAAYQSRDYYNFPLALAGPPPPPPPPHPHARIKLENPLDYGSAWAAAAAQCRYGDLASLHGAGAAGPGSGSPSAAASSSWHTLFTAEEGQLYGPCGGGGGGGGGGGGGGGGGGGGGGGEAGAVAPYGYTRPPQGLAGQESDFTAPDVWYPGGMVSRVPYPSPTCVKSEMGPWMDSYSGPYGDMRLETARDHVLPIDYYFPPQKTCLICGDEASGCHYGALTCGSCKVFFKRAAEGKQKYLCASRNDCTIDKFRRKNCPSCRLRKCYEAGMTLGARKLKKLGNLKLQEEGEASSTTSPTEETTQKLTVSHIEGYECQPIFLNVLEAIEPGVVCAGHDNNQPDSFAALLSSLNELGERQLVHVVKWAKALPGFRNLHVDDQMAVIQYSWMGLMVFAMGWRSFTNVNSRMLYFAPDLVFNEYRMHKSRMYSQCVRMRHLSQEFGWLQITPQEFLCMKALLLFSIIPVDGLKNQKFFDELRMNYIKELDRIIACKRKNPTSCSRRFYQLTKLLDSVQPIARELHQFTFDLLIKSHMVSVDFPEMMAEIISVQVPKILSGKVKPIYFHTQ

[16] = biological target: Steroid 5-alpha-reductase (Homo sapiens) (UniProt P18405+P31213+Q9H8P0); assay: Inhibition of 5alpha-reductase in human epidermis assessed as inhibition of [14C]testosterone to DHT after 24 hrs; assay type: protein assay
Steroid 5-alpha-reductase (Homo sapiens), sequence (P18405 whole entry, looked up): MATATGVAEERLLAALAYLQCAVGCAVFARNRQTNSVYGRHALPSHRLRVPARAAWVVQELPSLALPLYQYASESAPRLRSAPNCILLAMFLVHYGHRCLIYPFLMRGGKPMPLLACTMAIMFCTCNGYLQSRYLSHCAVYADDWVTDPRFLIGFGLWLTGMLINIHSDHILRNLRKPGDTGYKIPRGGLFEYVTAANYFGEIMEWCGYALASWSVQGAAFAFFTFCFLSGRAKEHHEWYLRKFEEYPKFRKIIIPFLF
Steroid 5-alpha-reductase (Homo sapiens), sequence (P31213 whole entry, looked up): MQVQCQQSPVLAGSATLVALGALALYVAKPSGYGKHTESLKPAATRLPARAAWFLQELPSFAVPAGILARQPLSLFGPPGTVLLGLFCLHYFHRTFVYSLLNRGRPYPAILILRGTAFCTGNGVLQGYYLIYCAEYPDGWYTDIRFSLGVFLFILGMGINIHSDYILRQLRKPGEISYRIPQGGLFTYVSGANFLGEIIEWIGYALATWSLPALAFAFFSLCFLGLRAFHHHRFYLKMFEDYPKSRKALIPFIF
Steroid 5-alpha-reductase (Homo sapiens), sequence (Q9H8P0 whole entry, looked up): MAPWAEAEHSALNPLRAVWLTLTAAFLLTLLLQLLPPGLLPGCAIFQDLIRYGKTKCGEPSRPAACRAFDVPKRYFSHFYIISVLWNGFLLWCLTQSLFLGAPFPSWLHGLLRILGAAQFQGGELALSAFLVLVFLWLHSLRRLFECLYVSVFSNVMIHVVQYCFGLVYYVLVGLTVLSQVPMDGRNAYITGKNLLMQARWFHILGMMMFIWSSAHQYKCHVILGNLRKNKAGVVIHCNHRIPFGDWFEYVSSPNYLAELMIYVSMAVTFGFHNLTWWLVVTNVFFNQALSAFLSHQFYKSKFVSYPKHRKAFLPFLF

[17] = Drug metabolism in rat plasma assessed as compound remaining after 30 mins by HPLC analysis; assay type: ADME, cell-free; settings: read-out: Drug metabolism
[18] = Drug metabolism in rat skin homogenate assessed as compound remaining after 16 hrs by HPLC analysis; assay type: ADME, tissue-based, Zone of skin; settings: read-out: Drug metabolism
[19] = Drug metabolism in human plasma assessed as compound remaining after 4 hrs by HPLC analysis; assay type: ADME, cell-free; settings: read-out: Drug metabolism
[20] = Drug metabolism in human plasma assessed as compound remaining after 1 hr by HPLC analysis; assay type: ADME, cell-free; settings: read-out: Drug metabolism
[21] = Drug metabolism in rat skin homogenate assessed as compound remaining after 5 mins by HPLC analysis; assay type: ADME, tissue-based, Zone of skin; settings: read-out: Drug metabolism
[22] = Drug metabolism in rat plasma assessed as compound remaining after 5 mins by HPLC analysis; assay type: ADME, cell-free; settings: read-out: Drug metabolism
[23] = Drug metabolism in rat plasma assessed as compound remaining after 4 hrs by HPLC analysis; assay type: ADME, cell-free; settings: read-out: Drug metabolism
[24] = Drug metabolism in rat plasma assessed as compound remaining after 2 hrs by HPLC analysis; assay type: ADME, cell-free; settings: read-out: Drug metabolism
Syrian golden hamster [25] = assay: Antiandrogenic activity in female Syrian golden hamsters assessed as inhibition of testosterone propionate-induced flank organ enlargement at 200 ug per animal, topically relative to untreated control; assay type: functional, Mesocricetus auratus
[26] = Drug metabolism in human plasma assessed as compound remaining after 0 mins by HPLC analysis; assay type: ADME, cell-free; settings: read-out: Drug metabolism
[27] = Drug metabolism in rat plasma assessed as compound remaining after 15 mins by HPLC analysis; assay type: ADME, cell-free; settings: read-out: Drug metabolism
[28] = Drug metabolism in rat skin homogenate assessed as compound remaining after 8 hrs by HPLC analysis; assay type: ADME, tissue-based, Zone of skin; settings: read-out: Drug metabolism
[29] = Drug metabolism in rat skin homogenate assessed as compound remaining after 30 mins by HPLC analysis; assay type: ADME, tissue-based, Zone of skin; settings: read-out: Drug metabolism
[30] = Drug metabolism in rat plasma assessed as compound remaining after 0 mins by HPLC analysis; assay type: ADME, cell-free; settings: read-out: Drug metabolism
Rattus norvegicus [31] = assay: Antiandrogenic activity in sc dosed male castrated Wistar rat assessed as inhibition of testosterone propionate-induced preputial gland organ effect; assay type: functional, organism-based
Rattus norvegicus [32] = assay: Antiandrogenic activity in sc dosed male castrated Wistar rat assessed as inhibition of testosterone propionate-induced ventral prostate gland organ effect; assay type: functional, organism-based
Syrian golden hamster [33] = assay: Antiandrogenic activity in female Syrian golden hamsters assessed as inhibition of testosterone propionate-induced flank organ enlargement at 100 ug per animal, topically relative to untreated control; assay type: functional, Mesocricetus auratus

- Drug metabolism (Plasma): metabolite_detected
Compound: CCC(=O)OCC(=O)[C@@]1(O)CC[C@H]2[C@@H]3CCC4=CC(=O)CC[C@]4(C)[C@H]3CC[C@@]21C
- inhibition (INH) (Syrian golden hamster [1]): 29%

Compound: CCC(=O)OCC(=O)[C@@]1(OC(=O)CC)CC[C@H]2[C@@H]3CCC4=CC(=O)CC[C@]4(C)[C@H]3CC[C@@]21C
- inhibition (INH) (Syrian golden hamster [1]): 57%

Compound: CCCC(=O)O[C@]1(C(=O)CO)CC[C@H]2[C@@H]3CCC4=CC(=O)CC[C@]4(C)C3=CC[C@@]21C
- inhibition (INH) (Syrian golden hamster [1]): 85%

- remaining at 4 h [2]: 59.5%
- remaining at 1 h [3]: 89.5%
- remaining at 8 h [4]: 0%
- remaining at 1 h [5]: 60%
- remaining at 2 h [6]: 69.5%
- remaining at 2 h [8]: 67.2%
- remaining at 24 h [9]: 44.8%
- remaining at 0.25 h [11]: 99%
- remaining at 0.5 h [12]: 93.2%
- remaining at 6 h [14]: 11.3%
- remaining at 0 h [15]: 99%
- IC50 (Androgen receptor): 50 nM
- Ki (Androgen receptor): 40 nM
- inhibition [16]: inactive
- remaining at 0.5 h [17]: 80%
- remaining at 16 h [18]: 44.8%
- remaining at 4 h [19]: 30.3%
- remaining at 1 h [20]: 85.2%
- remaining at 5 min [21]: 99%
- remaining at 5 min [22]: 90%
- remaining at 4 h [23]: 20%
- remaining at 2 h [24]: 50%
- remaining at 0 h [26]: 99.6%
- remaining at 0.25 h [27]: 90%
- remaining at 8 h [28]: 49.5%
- remaining at 0.5 h [29]: 98.5%
- remaining at 0 h [30]: 100%
Compound: CCC(=O)O[C@]1(C(=O)CO)CC[C@H]2[C@@H]3CCC4=CC(=O)CC[C@]4(C)[C@H]3CC[C@@]21C [CLASCOTERONE]
- Activity (Rattus norvegicus [7]): inactive
- inhibition (Rattus norvegicus [10]): Active
- inhibition (Rattus norvegicus [13]): Active
- inhibition (INH) (Syrian golden hamster [25]): 78%
- inhibition (INH) (Syrian golden hamster [1]): 84%
- Activity (Rattus norvegicus [31]): inactive
- Activity (Rattus norvegicus [32]): inactive
- inhibition (INH) (Syrian golden hamster [33]): 40%

Compound: C[C@]12CCC(=O)C=C1CC[C@@H]1[C@@H]2CC[C@@]2(C)[C@H]1CC[C@]2(O)C(=O)CO [CORTODOXONE]
- inhibition (INH) (Syrian golden hamster [1]): 0%

Compound: CC(=O)O[C@]1(C(C)=O)CC[C@H]2[C@@H]3C=C(Cl)C4=CC(=O)[C@@H]5C[C@@H]5[C@]4(C)[C@H]3CC[C@@]21C [CYPROTERONE ACETATE]
- inhibition (INH) (Syrian golden hamster [1]): 93%

Compound: CC(C)(C)NC(=O)[C@H]1CC[C@H]2[C@@H]3CC[C@H]4NC(=O)C=C[C@]4(C)[C@H]3CC[C@]12C [FINASTERIDE]
- inhibition (INH) (Syrian golden hamster [1]): 71%
